Results from patent US20190374563A1, “TREATMENT OF KLEBSIELLA PNEUMONIAE INFECTIONS WITH ANTIBACTERIAL AMINOGLYCOSIDE COMPOUNDS” (Achaogen, Inc., priority 2009, published 2019).
≈ marks a conversion by molar mass, not a printed value. Like-named read-outs stand apart in the source and are kept apart here.

Experiments:
[1] = tested on: K. pneumoniae producing KPC (n = 25); test: MIC by microdilution, clinical isolates; type: cell-based; details: K. pneumoniae producing KPC (n = 25); for S (%), susceptible isolates: CLSI criteria, tigecycline US FDA criteria; for MIC50 / MIC90: Klebsiella pneumoniae; for MIC50: read-out: MIC50; for MIC90: read-out: MIC90
Protocol: (§1) The in vitro activity of representative antibacterial aminoglycoside compounds against a collection of 102 K. pneumoniae clinical isolates collected from January 2006 to October 2007 at the University of Pittsburgh Medical Center, and three Cleveland institutions including University Hospitals Case Medical Center, the Cleveland Clinic, and the Louis Stokes Department of Veterans Affairs Medical Center was analyzed. The 102 K. pneumoniae isolates were selected based on a multidrug-resistant (MDR) phenotype (i.e., resistance to >3 antibiotic classes). Twenty-five isolates were KPC carbapenemase producing (KPC-Kp), and were part of a previous study where the β-lactamase background and clonality were characterized (see Endimiani, A., A. M. Hujer, F. Perez, C. R. Bethel, K. M. Hujer, J. Kroeger, M. Oethinger, D. L. Paterson, M. D. Adams, M. R. Jacobs, D. J. Diekema, G. S. Hall, S. G. Jenkins, L. B. Rice, F. C. Tenover, and R. A. Bonomo. 2009. Characterization of blaKPC-containing Klebsiella pneumoniae isolates detected in different institutions in the Eastern USA. J Antimicrob Chemother 63:427-37).
(§2) Minimum inhibitory concentrations (MICs) were performed by microdilution method using cation-adjusted Mueller-Hinton broth, according to the Clinical and Laboratory Standards Institute (CLSI) criteria (see CLSI. 2006. Methods for dilution antimicrobial susceptibility tests for bacteria that grow aerobically; approved standard-Seventh edition. Clinical and Laboratory Standard Institute, Wayne, Pa. CLSI document M7-A7). These MIC assays were conducted following the same protocol as set forth in Example 110. […] The following ATCC control strains were used: Escherichia coli ATCC 25922, Pseudomonas aeruginosa ATCC 27853, and K. pneumoniae ATCC 700603.

[2] = tested on: multidrug-resistant (MDR) K. pneumoniae isolates (n = 102); test: MIC by microdilution, clinical isolates; type: cell-based; details: for MIC50 / MIC90 / S (%), susceptible isolates: Total MDR K. pneumoniae isolates (n = 102); for MIC50: read-out: MIC50; for S (%), susceptible isolates: CLSI criteria, tigecycline US FDA criteria
Protocol: as §1, §2

[3] = tested on: E. coli ATCC 25922 (AECO001); test: MIC assay, CLSI broth microdilution; type: cell-based; details: Escherichia coli, ATCC25922
Procedure, shortened: (§3)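 CLSI M7-A7 broth microdilution in Mueller Hinton Broth using two-fold compound serial dilutions. Inoculum was prepared from the previous day's agar colonies at a final 5×10^5 CFU/mL. Plates were incubated at 35° C for 20 hours in ambient air.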

P. aeruginosa ATCC 27853 = test: murine septicemia model of infection; type: in vivo; details: mice, single SC or IV dose 1 hour after IP challenge, mortality for 7 days; ED50 values are mg/kg
Protocol: (§4) Two models were run on each compound, using E. coli and P. aeruginosa QC bacterial strains. Both studies employed the same design. […] At 1 hour after bacterial challenge, the mice received a single SC or IV dose of vehicle or test substance to assess in vivo anti-infective activity. Mortality was recorded once daily for 7 days after bacterial inoculation.

E. coli ATCC 25922 = test: murine septicemia model of infection; type: in vivo; details: mice, single SC or IV dose 1 hour after IP challenge, mortality for 7 days; ED50 values are mg/kg
Protocol: as §4

[4] = tested on: P. aeruginosa ATCC 27853 (APAE001); test: MIC assay, CLSI broth microdilution; type: cell-based; details: Pseudomonas aeruginosa, ATCC27853, read-out: MIC APAE001
Procedure, shortened: as §3

[5] = Klebsiella pneumoniae, read-out: MIC90

Row | Structure (SMILES) | S (%), susceptible isolates [1] | MIC50 [1] | MIC90 [1] | MIC50 ([2]; Klebsiella pneumoniae) | MIC90 [2, 5] | S (%), susceptible isolates [2] | ED50/MIC P. aeruginosa (P. aeruginosa ATCC 27853) | ED50/MIC E. Coli (E. coli ATCC 25922) | also measured
1 | C[C@@H](O)[C@H]1C(=O)N2C(C(=O)O)=C(SCCN=CN)C[C@H]12 [Imipenem, imipenem] | 12.0% | 8 µg/mL (≈ 26.7 µM) | > 16 µg/mL | 0.5 µg/mL (≈ 1.67 µM) | 8 µg/mL (≈ 26.7 µM) | 75.5% | – | – | S (%), susceptible isolates ([2]; listed as imipenem): approximately 75%; MIC [3]: 0.125 µg/mL (≈ 0.418 µM)
2 | NCC[C@H](O)C(=O)N[C@@H]1C[C@H](N)[C@@H](O[C@H]2O[C@H](CN)[C@@H](O)[C@H](O)[C@H]2O)[C@H](O)[C@H]1O[C@H]1O[C@H](CO)[C@@H](O)[C@H](N)[C@H]1O [Amikacin, amikacin] | 48.0% | 32 µg/mL (≈ 54.6 µM) | 32 µg/mL (≈ 54.6 µM) | 2 µg/mL (≈ 3.42 µM) | 32 µg/mL (≈ 54.6 µM) | 78.4% | 13 | 1.5 | S (%), susceptible isolates ([1]; listed as amikacin): 48%; isolates fully resistant (MICs of 64 μg/ml) ([2]; MDR K. pneumoniae isolates (n = 102)): five; S (%), susceptible isolates ([2]; listed as amikacin): 78%
3 | CN[C@@H]1[C@@H](O)[C@@H](O[C@@H]2[C@@H](O)[C@H](O[C@H]3OC(CN)=CC[C@H]3NC(=N)N)[C@@H](N)C[C@H]2NC(=O)[C@@H](O)CCN)OC[C@]1(C)O [Example 103, 2′-Guanidinium-1-(4-amino-2(S)-hydroxy-butyryl)-sisomicin] | – | – | – | – | – | – | 6 | 2 | –
4 | CC(C)(O/N=C(\C(=O)N[C@@H]1C(=O)N2C(C(=O)[O-])=C(C[n+]3ccccc3)CS[C@H]12)c1csc(N)n1)C(=O)O [Ceftazidime, ceftazidime] | 0.0% | > 32 µg/mL | > 32 µg/mL | > 32 µg/mL | > 32 µg/mL | 9.8% | – | – | MIC90 [2]: >32 µg/mL
5 | CN[C@@H]1[C@@H](O)[C@@H](O[C@@H]2[C@@H](O)[C@H](O[C@H]3OC(CNCCCN)=CC[C@H]3N)[C@@H](N)C[C@H]2NC(=O)C2(O)CNC2)OC[C@]1(C)O [Example 57] | – | – | – | – | – | – | 14 | 2 | –
6 | CN[C@@H]1[C@@H](O)[C@@H](O[C@@H]2[C@@H](O)[C@H](O[C@H]3OC(CNCCO)=CC[C@H]3N)[C@@H](N)C[C@H]2NC(=O)[C@@H](O)CN)OC[C@]1(C)O [Example 16, 6′-(2-Hydroxy-ethyl)-1-(3-amino-2(S)-hydroxy-propionyl)-sisomicin] | – | – | – | – | – | – | 3 | 1 | –
7 | CN[C@@H]1[C@@H](O)[C@@H](O[C@@H]2[C@@H](O)[C@H](O[C@H]3OC(CNCC(O)CN)=CC[C@H]3N)[C@@H](N)C[C@H]2NC(=O)[C@@H](O)CN)OC[C@]1(C)O (stereo partly drawn) [Example 22, 6′-(3-Amino-2-hydroxy-propyl)-1-(3-amino-2(S)-hydroxy-propionyl)-sisomicin] | – | – | – | – | – | – | 8 | 1 | –
8 | NC[C@H]1O[C@H](O[C@H]2[C@H](O)[C@@H](O[C@H]3O[C@H](CO)[C@@H](O)[C@H](N)[C@H]3O)[C@H](N)C[C@@H]2N)[C@H](N)C[C@@H]1O [Tobramycin, tobramycin] | 8.0% | 32 µg/mL (≈ 68.4 µM) | ≥ 64 µg/mL | 32 µg/mL (≈ 68.4 µM) | ≥ 64 µg/mL | 10.8% | – | – | S (%), susceptible isolates ([1]; listed as tobramycin): 8%; MIC90 [2]: ≥64 µg/mL
9 | CN[C@@H]1[C@@H](O)[C@@H](O[C@@H]2[C@@H](O)[C@H](O[C@H]3OC(CNCC4CCNCC4)=CC[C@H]3N)[C@@H](N)C[C@H]2NC(=O)[C@@H](O)CN)OC[C@]1(C)O [Example 15, 6′-(Methyl-piperidin-4-yl)-1-(3-amino-2(S)-hydroxy-propionyl)-sisomicin] | – | – | – | – | – | – | 1 | <1 | MIC [4]: 1 to 16 µg/mL (≈ 1.58 to 25.3 µM)
